The nature of data set [1]: Stability experiments using liver microsomes (mouse). The class given is in vitro ADME. The conditions noted are these: 37° C., 1 h, NADPH regenerating system, radio-UPLC. The source says: (§1) General: Reagents and solvents were purchased from Sigma-Aldrich Chemie GmbH, Acros Organics or VWR International AG if nothing else is mentioned. All chemicals were used as supplied. Human and mouse (female CD-1) microsomes and the NADPH regenerating systems were purchased from BD biosciences.
(§2) Radio-UPLC: For stability studies, an ultra-performance liquid chromatography (UPLC™, Waters) system, equipped with an Acquity UPLC BEH C18 column (1.7 μm, 2.1×50 mm, Waters) and a coincidence detector (FlowStar LB513, Berthold) was used with following solvent system: eluent A was a NaH2PO4/Na2HPO4 buffer (0.05 M, pH 7.4) and eluent B was acetonitrile. A gradient from 0-4.0 min 100%-40% A, at a flow rate of 0.6 ml/min was used.
(§3) To a mixture of KH2PO4/K2HPO4 buffer (pH 7.4, 0.5 M, 200 μl), NADPH regenerating system A (50 μl), NADPH regenerating system B (10 μl), an aliquot of [^18F]-3′-aza-2′-fluorofolic acid (38 μl, approx. 15 MBq) was added and filled up with water (677 μl) to a volume of 975 μl and preincubated at 37° C. Then, mouse or human liver microsomes (20 mg/ml, 25 μl) were added and incubated at 37° C. After several time points (0, 20, 40 and 60 min) aliquots (100 μl) were drawn and the enzymatical reaction was stopped by purring the solution into ice-cold methanol (200 μl). […] Every time point was performed as a triplicate and analyzed on a radio-UPLC system. […]

A short description of data set [2]: Ex vivo metabolite studies in KB tumor bearing mice. Particulars: i.v., radio-UPLC. On the procedure:
as §2
For the determination of radiometabolites in vivo, 3′-aza-2′-[^18F]fluorofolic acid (60-70 MBq) was intravenously injected into KB tumor bearing mice (n=2). After 5 min, blood samples were drawn from the opposite vein and the animals were sacrificed 30 min after radiotracer injection. The whole blood, liver, tumor and urine were collected. Blood samples were centrifuged at 5000 g for 5 min at 4° C. The proteins of the plasma samples were precipitated by addition of the same volume of ice-cold methanol followed by centrifugation. The supernatants of the plasma and the urine sample were diluted with PBS buffer and analyzed by radio-UPLC. Liver and tumor tissue were homogenized in an equal volume of PBS using a PT 1200 C Polytron (Kinematica AG), respectively. After addition of the same volume of ice-cold MeOH, the mixture was centrifuged at 5000 g for 5 min and 4° C. The supernatant was cleared from remaining proteins by addition of ice-cold methanol, followed by centrifugation. The resulting supernatant fractions were diluted with PBS buffer and analyzed by radio-UPLC.

Data set [3] in a line: Stability experiments using liver microsomes (human). The format is in vitro ADME. The conditions noted are these: 37° C., 1 h, NADPH regenerating system, radio-UPLC.
Text: as §1, §2, §3
(In general: Liver microsomes are a subcellular fraction often used to study metabolism.)

With `Nc1nc2ncc(CNc3ccc(C(=O)N[C@@H](CCC(=O)O)C(=O)O)c([18F])n3)nc2c(=O)[nH]1` [3′-aza-2′-[^18F]fluorofolic acid], the “Stability in mouse liver microsomes” value in data set [1] is “completely stable”. Moreover, in data set [2] (30 min p.i.), the Radiometabolites in liver result is listed as “signs of metabolism”, the Radiometabolites in tumor entry was “no detectable amounts of metabolites” and the Radiometabolites in urine entry is given as “no detectable amounts of metabolites”. Moreover, in data set [2] (plasma sample 5 min p.i.), the Radiometabolites in plasma result is “no detectable amounts of metabolites”. Besides, in data set [2] (plasma sample 30 min p.i.), the Radiometabolites in plasma result was “no detectable amounts of metabolites”. Also, in data set [3], the “Stability in human liver microsomes” value is “completely stable”.

The values are drawn from patent US10357576B2, “18F-labelled folate/antifolate analogues” (MERCK & CIE, priority 2012, dated 2019).
